This note sets out measurements from patent publication US6111080A, “Monoclonal antibodies” (Washington University, priority 1993, dated 2000).

The assay concerns RGD-binding receptor on PMN (B6H12 antigen, heterodimer of 140 kd and 105 kd). As to the kind of experiment: Cytochrome c-RGDS binding assay (inhibition of 125I-cc-RGDS specific binding to PMN). Set-up: species or system human. The following applies: unlabelled inhibitor 500 μg/ml; 40 μg 125I-cc-RGDS, 1.0 × 10^6 PMN, 5,000 units catalase in 1 ml, 30 min at 37° C.; relative to cc-C. As for the experimental part:
Cytochrome c-RGDS was radioiodinated by chloroglycoluril [Markwell and Fox, Biochemistry 17, 4807-4817 (1978)] for 15 min at 0° C. PMN (5.0×10^5) in HBSS^++ -1% OVA were incubated with 10 μg of radiolabelled cc-RGDS in the presence of 5K U/ml of catalase and 293 μg of unlabelled cc-C in a final volume of 250 μl. The reaction mixtures were incubated in 1.5 ml Eppendorf tubes for 30 min at 37° C. The mixtures were overlayered on Versilube (General Electric) and centrifuged at 12,000×g to assess pellet associated radioactivity. Specific binding was determined by subtracting the radioactivity bound in the presence of […] of unlabelled cc-RGDS from the total radioactivity. Unlabelled cc-C was included in the reaction to control for any binding due to cytochrome c and not specifically due to the RGDS moiety. For inhibition tests, the various inhibitors were included in the reaction at the indicated concentrations. Antibodies were incubated with the PMN at the indicated concentrations for 15 min at room temperature prior to the addition of the other reactants.
^a PMN (1.0 × 10^6) were incubated with 40 μg of ^12
Icc-RGDS with the indicated concentrations of unlabelled inhibitors in th
presence of 5,000 units of catalase in 1 ml for 30 min at 37° C.
The PMN were centrifuged through oil and the pelletassociated counts
assessed. […]
^b Calculated from the mean cpm's. […]

GRGDSC: the “% I (percent inhibition of cc-RGDS specific binding to PMN)” value was 79.6%.
